What all share (test): growth of human tumour cells (NCI), 48 h
The subject of assay [1] is 786-0 renal.
Assay [2] has as its system CCRF-CEM leukemia.
Assay [3] has as its system MDA-MB-231 breast.
Assay [4] has as its system MDA-MB-435.
Assay [5] concerns NCI-H460 lung.
In assay [6] the test system is OVCAR-5 ovarian.
Assay [7] deals with RXF 393 renal.
Assay [8] concerns SF-539 CNS.
For assay [9], the system named is SR leukemia.
In assay [10] the test system is CAKI-1 renal.

Data on 8 molecules can be found in PubChem BioAssay (NCI).

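A five-concentration, 48-hour dose response in 96-well plates underlies each endpoint, interpolated linearly between surrounding concentrations. At the GI50, growth is halved. TGI denotes the concentration required for complete inhibition of growth.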

As to `CCCCCCCCNc1cc2c3c(c1)CCCN3CCC2`, the GI50 in assay [1] is 3.31 µM; in assay [2], 1.63 µM; in [3], 2.56 µM; in assay [4] it was 0.951 µM; in assay [5] it was 2.66 µM; in assay [6], 3.88 µM. Also, the GI50 in [7] is 4.07 µM; in assay [8] it was 2.81 µM; in assay [9], 0.551 µM. The TGI is 13.7 µM in assay [1]; over 100 µM in [2]; 11.7 µM in assay [3]; 11.7 µM in assay [4]; 9.18 µM in assay [5]; 17.5 µM in assay [6]. In addition, the values for the TGI in assay [7], in assay [8] and in assay [9] were 17.9 µM, 17 µM and over 100 µM, respectively.
For `Oc1c(-c2nnc(-c3ccccc3Cl)o2)sc2nnc(-c3ccccc3)c(-c3ccccc3)c12`, the GI50 was 7.22 µM in [1]; 0.501 µM in assay [10]; 1.43 µM in [2]; 4.08 µM in assay [3]; 4.26 µM in [4]; 1.73 µM in assay [5]. Also, the GI50 in assay [6] was 7.48 µM; in assay [7] it was 24.6 µM; in assay [8], 4.45 µM; in assay [9], 3.96 µM. Also, the TGI in assay [1] was over 100 µM; in [10], 24.6 µM; in [2], over 100 µM; in [3], 40.1 µM; in assay [4], over 100 µM; in assay [5], 15.3 µM. Also, the TGI in [6] was over 100 µM; in [7], over 100 µM; in [8], 70.4 µM; in assay [9] it was over 100 µM.
Regarding `O.O.[NH-]C1(C(=O)O)CCCC1.[NH-]C1(C(=O)O)CCCC1.[Ni+2]`, the GI50 in [1] was over 100 µM; in assay [3] it was over 100 µM; in assay [4], over 100 µM; in [9], 65.9 µM. Also, the TGI in assay [1], in assay [10], in assay [2], in assay [3], in assay [4] and in assay [5] was over 100 µM in each case. Moreover, the TGI in [6], in assay [7], in assay [8] and in [9] was over 100 µM throughout.
Take `CCCCON(OC(=O)c1ccc2ccccc2c1)C(=O)c1ccccc1`: the GI50 is 73.4 µM in assay [1]; over 100 µM in [10]; 21.4 µM in [2]; over 100 µM in assay [3]; over 100 µM in [4]; over 100 µM in assay [5]. Further, the GI50 in [6] was over 100 µM; in [7] it was over 100 µM; in assay [8], over 100 µM; in [9], 31.5 µM. Besides, the TGI in assay [1] was over 100 µM; in assay [10] it was over 100 µM; in assay [2], 57.3 µM; in [3], over 100 µM; in [4] it was over 100 µM; in assay [5] it was over 100 µM. In addition, the TGI in assay [6] was over 100 µM; in assay [7], over 100 µM; in assay [8] it was over 100 µM; in assay [9], 77.1 µM.
Turning to `N=C1C(c2nc3ccccc3s2)=C(O)CN1c1ccc(F)c(Cl)c1`, the GI50 in assay [1] is 22.7 µM; in assay [10], 14.8 µM; in [2] it was 36.8 µM; in assay [3], 15.9 µM; in assay [4], 61.9 µM; in [5], 17.5 µM. The GI50 in assay [6] is 35.9 µM; in assay [7] it was 7.38 µM; in [8], 8.36 µM; in assay [9], 0.666 µM. Also, the TGI was 57.1 µM in [1]; 98.1 µM in assay [10]; over 100 µM in assay [2]; 47.3 µM in assay [3]; over 100 µM in [4]; over 100 µM in assay [5]. The TGI in assay [6] is over 100 µM; in [7], 33.9 µM; in [8], 30.9 µM; in [9] it was 6.33 µM.
On to `O=c1[nH]c(=O)c2cn[nH]c2[nH]1`, for which the GI50 in assay [1], in [10], in [2], in [3], in assay [4] and in [5] was over 100 µM throughout. Besides, the GI50 in [6], in [7], in assay [8] and in [9] was over 100 µM in each case. Besides, the TGI in [1], in assay [10], in [2], in assay [3], in [4] and in [5] was over 100 µM in each case. Besides, the TGI in [6], in [7], in assay [8] and in [9] was over 100 µM throughout.
For `CCOc1cccc(/C=N/N=C2\C(=O)Nc3c(Cl)cc(Cl)cc32)c1O`, the TGI in assay [1], in [10], in assay [2], in [3], in assay [4] and in assay [5] was over 100 µM in each case. The TGI in assay [6], in assay [7], in [8] and in [9] was over 100 µM each time.
Take `COC(=O)C1CC23CCCN4CCC5(c6ccccc6N(C=O)C15CC2)C43` (configuration not stated): the TGI in assay [1], in assay [10], in assay [2], in [3], in assay [4] and in assay [5] was over 100 µM each time. The TGI in [6], in assay [7], in assay [8] and in [9] was over 100 µM throughout.
